Measured values as given in patent EP4741390A1, “BIARYL RING COMPOUND, INTERMEDIATE THEREOF, PREPARATION METHOD THEREFOR AND USE THEREOF” (Hangzhou Synrx Therapeutics Biomedical Technology Co., Ltd., priority 2023, dated 2025).
Like-named read-outs stand apart in the source and are kept apart here.

Tests used:
[1] = tested on: DLD1 wild type; assay: Cell viability assay (CTG assay), DLD1 wild type cells; assay type: cell-based; settings: Homo sapiens, DLD-1, 240 h; CellTiter Glo, read on Day 10, initial concentration 30 µM
Description: (§1) 2. Cell Viability Assay of Pol θ Inhibitor
(§2) The cell viability assay, i.e., the commonly used CTG assay, was conducted for the efficacy of the inhibitor in vitro using the CellTiter Glo reagent (Promega, G7573).

[2] = tested on: DLD1 BRCA2-/- cells; assay: Cell viability assay (CTG assay), DLD1 BRCA2-/- cells; assay type: cell-based; settings: Homo sapiens, DLD-1, 240 h; CellTiter Glo, read on Day 10, initial concentration 30 µM
Description: as §1, §2

[3] = molecular target: helicase domain of the Pol θ protein (Homo sapiens, UniProt O75417); assay type: biochemical
Description: Biochemical Activity Assay (ADP Glo Assay) of Pol θ Inhibitor
The specific assay method was as follows: • 1) The helicase domain of the Pol θ protein was purified by an insect system, to obtain the protein with a purity of >90%. ssDNA (5'-[sequence]-3', Hangzhou Yocon Biotechnology Co., Ltd.) was ordered as the substrate for the Pol θ protein; and a reaction buffer containing 10 mM DTT (Dithiothreitol), 20 mM MgCl2 and Tris-HCl pH 7.5 was prepared. • 2) The 2x ssDNA-Pol θ premix was prepared; the reaction was conducted in a 384-well plate; a control group with only buffer is set, and the premix was added to the rest of the groups.

[4] = ATPase activity, ADP-Glo, ssDNA substrate, 60 min at room temperature, initial concentration 10 µM, read-out: Biochemical experiment IC50

Sequence of helicase domain of the Pol θ protein (O75417 102-554 limits assumed): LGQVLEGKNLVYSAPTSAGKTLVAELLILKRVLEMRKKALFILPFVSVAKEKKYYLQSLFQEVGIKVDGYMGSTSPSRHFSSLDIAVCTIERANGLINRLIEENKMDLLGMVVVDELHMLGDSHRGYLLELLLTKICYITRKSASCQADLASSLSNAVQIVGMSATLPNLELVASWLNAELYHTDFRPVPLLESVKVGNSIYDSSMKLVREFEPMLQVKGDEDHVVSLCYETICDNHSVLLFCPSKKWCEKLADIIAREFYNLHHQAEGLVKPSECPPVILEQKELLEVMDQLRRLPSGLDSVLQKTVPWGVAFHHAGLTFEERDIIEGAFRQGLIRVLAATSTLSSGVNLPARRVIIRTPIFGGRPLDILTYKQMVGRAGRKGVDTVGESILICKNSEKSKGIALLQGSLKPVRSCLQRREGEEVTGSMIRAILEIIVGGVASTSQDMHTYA

IC50 [1] [nM] | IC50 [2] [nM] | IC50 [3, 4] [nM] | Structure (SMILES) | IC50 [3] [nM]
> 50000 | 41.2 | 5.58 | COc1cnc(C(F)F)cc1-c1cc(-n2cccc(F)c2=O)ncc1C(=O)Nc1nc(-c2ccncc2)cs1 [Example 2, 2"-(difluoromethyl)-3-fluoro-5"-methoxy-2-oxo-N-(4-(pyridin-4-yl)thiazol-2-yl)-2H-[1,2':4',4"-terpyridine]-5'-carboxamide] | –
> 50000 | 79.4 | 10.3 | COc1cnc(C(F)F)cc1-c1cc(-n2cccc(F)c2=O)ncc1C(=O)Nc1nc(C2CC2)cs1 [Example 3, N-(4-cyclopropylthiazol-2-yl)-2"-(difluoromethyl)-3-fluoro-5"-methoxy-2-oxo-2H-[1,2':4',4"-terpyridine]-5'-carboxamide] | –
> 50000 | 43 | 20.9 | COc1cnc(C(F)F)cc1-c1cc(-n2cccc(F)c2=O)ncc1C(=O)Nc1nccs1 [Example 4, 2"-(difluoromethyl)-3-fluoro-5"-methoxy-2-oxo-N-(thiazol-2-yl)-2H-[1,2':4',4"-terpyridine]-5'-carboxamide] | –
> 50000 | – | 132 | COc1cnc(Cl)cc1-c1cc(C)ncc1C(=O)Nc1nc(C2CC2)ns1 [Example 5, 2'-chloro-N-(3-cyclopropyl-1,2,4-thiadiazol-5-yl)-5'-methoxy-6-methyl-[4,4'-bipyridine]-3-carboxamide] | –
> 50000 | 52.1 | 15.2 | COc1cnc(C(F)F)cc1-c1cc(-n2cccc(F)c2=O)ncc1C(=O)Nc1nc(C(C)(C)C)ns1 [Example 6, N-(3-(tert-butyl)-1,2,4-thiadiazol-5-yl)-2"-(difluoromethyl)-3-fluoro-5"-methoxy-2-oxo-2H-[1,2':4',4"-terpyridine]-5'-carboxamide] | –
23300 | 25.1 | – | COc1cnc(C(F)F)cc1-c1cc(-n2cccc(F)c2=O)ncc1C(=O)Nc1nc(-c2ccc(F)cc2)ns1 [Example 12, 2"-(difluoromethyl)-3-fluoro-N-(3-(4-fluorophenyl)-1,2,4-thiadiazol-5-yl)-5"-methoxy-2-oxo-2H-[1,2':4',4"-terpyridine]-5'-carboxamide] | –
> 5000 | – | 34.1 | COc1cnc(C(F)F)cc1-c1cc(-n2cccc(F)c2=O)ncc1C(=O)Nc1nc(N)ns1 [Example 30, N-(3-amino-1,2,4-thiadiazol-5-yl)-2"-(difluoromethyl)-3-fluoro-5"-methoxy-2-oxo-2H-[1,2':4',4"-terpyridin]-5'-carboxamide] | –
> 5000 | – | 14.4 | COc1cnc(C(F)F)cc1-c1cc(-n2cccc(F)c2=O)ncc1C(=O)Nc1nc(NC(C)=O)ns1 [Example 31, N-(3-acetamino-1,2,4-thiadiazol-5-yl)-2"-(difluoromethyl)-3-fluoro-5"-methoxy-2-oxo-2H-[1,2':4',4"-terpyridin]-5'-carboxamide] | –

Structure (SMILES) | IC50 [1] [nM] | IC50 [2] [nM] | IC50 [3, 4] [nM] | IC50 [3] [nM]
COc1cnc(C(F)F)cc1-c1cc(-n2cccc(F)c2=O)ncc1C(=O)Nc1nc(C2CC2)ns1 [Example 1, N-(3-cyclopropyl-1,2,4-thiadiazol-5-yl)-2"-difluoromethyl-3-fluoro-5"-methoxy-2-oxo-2H-[1,2':4',4"-tripyridin]-5'-carboxamide] | > 50000 | 48.2 | – | 6.92
COc1cnc(C(F)F)cc1-c1cc(-n2cccc(F)c2=O)ncc1C(=O)Nc1nc(N2CC3CC(C2)N3)ns1 [Example 27, N-(3-(3,6-diazabicyclo[3.1.1]heptan-3-yl)-1,2,4-thiadiazol-5-yl)-2"-(difluoromethyl)-3-fluoro-5"-methoxy-2-oxo-2H-[1,2':4',4"-terpyridin]-5'-carboxamide] | > 5000 | – | 158 | –
COc1cnc(C(F)F)cc1-c1cc(-n2cccc(F)c2=O)ncc1C(=O)Nc1nc(N2CC3CC(C2)N3C)ns1 [Example 29, 2"-(difluoromethyl)-3-fluoro-5"-methoxy-N-(3-(6-methyl-3,6-diazabicyclo[3.1.1]heptan-3-yl)-1,2,4-thiadiazol-5-y)-2-oxo-2H-[1,2':4',4"-terpyridin]-5'-carboxamide] | > 5000 | – | – | 244
